From patent US8574633B2 (priority 2004, dated 2013)
Values joined by “and” are separate entries in the source; they are usually repeats but may differ in a detail not shown here. Equal entries are not always repeated.

Test system: ICR mice
Procedure: 2.experimental animals: ICR mice, SPF, male and female, body weight 18-20 g, all bought from Shanghai SIPPR/BK Experimental Animal Co. Laboratory animal license No. SCXK (Hu)2003-0002
3. experimental conditions: SPF experimental environment. Grouped the experimental mice 5 per cage and bred. The breeding temperature was 22±2° C., the humidity was 60-70% and Laboratory animal license number was SCXK (Hu)2002-0035. The mice were bred with the solid high pressure forage. Fasted 12 hours before the test but no water-deprivation.
After administration, the mice were liberated to diet. Observed the mice once immediately, every morning and every afternoon for 7 continuous days. The mice were observed once a day from the 8th day. Record the mortality and toxic reaction of the experimental animals.

SMILES: C/C=C1\[C@H]2C=C(C)C[C@]1(N)c1ccc(=O)[nH]c1C2 [Control medicine, Huperzine A]
- content of HupA at the LD50 of the composition (HupA part of the LD50 dose): 6.03 mg/kg
- LD50 (ICR mice, intragastric, simplified probit method, confidence limit 95%): 6.03 ± 1.46 mg/kg and 6.03 mg/kg
